{"source": "paper PMC6792352", "about": "“Limited Chemical Structural Diversity Found to Modulate Thyroid Hormone Receptor in the Tox21 Chemical Library” (Environmental Health Perspectives, 2019)", "note": "Counter-ions that a name gives are not always drawn.", "data": [{"test": "in vitro", "details": "rat, gh3-tre-luc cells, AC50 (uM) modified / 1000", "units": {"CC50 at 24 h": "µM"}, "values": [{"smiles": "O=C(O)c1ccccc1C(=O)O", "note": "[Phthalic acid]", "CC50 at 24 h": "> 90"}, {"smiles": "CN(C)CCOC(C)(c1ccccc1)c1ccccn1", "note": "(stereo not shown) [Doxylamine succinate]", "CC50 at 24 h": "> 50"}, {"smiles": "CCOC(=O)C1=C[C@@H](OC(CC)CC)[C@H](NC(C)=O)[C@@H](N)C1", "note": "[Oseltamivir tartrate]", "CC50 at 24 h": "> 50"}, {"smiles": "CCCCCCCCCOS(=O)(=O)O", "note": "[Sulfuric acid, monononyl ester, sodium salt]", "CC50 at 24 h": "> 90"}, {"smiles": "C=CCSSCC=C", "note": "[Diallyl disulfide]", "CC50 at 24 h": "> 90"}, {"smiles": "N#Cc1cc(I)c(O)c(I)c1", "note": "[Ioxynil]", "CC50 at 24 h": 49.1}, {"smiles": "Cc1ccc(/C=N/n2c(-c3ccccc3)csc2=S)cc1", "note": "[Fezatione]", "CC50 at 24 h": "> 50"}, {"smiles": "c1ccc2c(c1)[nH]c1cnccc12", "note": "[Norharman]", "CC50 at 24 h": "> 90"}, {"smiles": "CC(C)Oc1ccccc1O", "note": "[2-Isopropoxyphenol]", "CC50 at 24 h": "> 90"}, {"smiles": "CC(=O)CC(C)C", "note": "[4-Methyl-2-pentanone]", "CC50 at 24 h": "> 90"}, {"smiles": "c1ccc(SSc2ccccc2)cc1", "note": "[Diphenyl disulfide]", "CC50 at 24 h": "> 90"}, {"smiles": "COc1ccc(-c2cc(C(F)F)nn2-c2ccc(S(N)(=O)=O)cc2)cc1F", "note": "[Deracoxib]", "CC50 at 24 h": "> 50"}, {"smiles": "CC(=O)OCC(=O)[C@H]1CC[C@H]2[C@@H]3CCC4=CC(=O)CC[C@]4(C)[C@H]3CC[C@]12C", "note": "[Deoxycorticosterone acetate]", "CC50 at 24 h": "> 50"}, {"smiles": "Cc1ccc2c(c1)C(=O)OC2=O", "note": "[4-Methylphthalic anhydride]", "CC50 at 24 h": "> 90"}, {"smiles": "CCCCCCCCc1ccc(S(=O)(=O)O)cc1", "note": "[Sodium 4-octylbenzenesulfonate]", "CC50 at 24 h": "> 90"}, {"smiles": "CC(=O)c1ccc(O)cc1", "note": "[4-Hydroxyacetophenone]", "CC50 at 24 h": "> 90"}, {"smiles": "c1cc2c3c(cccc3c1)CC2", "note": "[Acenaphthene]", "CC50 at 24 h": "> 90"}, {"smiles": "Cc1ccc(N)cc1Cl", "note": "[3-Chloro-4-methylaniline]", "CC50 at 24 h": "> 90"}, {"smiles": "CCCCCCCCCCCCCCCBr", "note": "[1-Bromopentadecane]", "CC50 at 24 h": "> 50"}, {"smiles": "Nc1cc(Cl)c([N+](=O)[O-])cc1O", "note": "[2-Amino-4-chloro-5-nitrophenol]", "CC50 at 24 h": 36.9}, {"smiles": "CC(Oc1cc(Cl)c(Cl)cc1Cl)C(=O)O", "note": "(stereo not shown) [2-(2,4,5-Trichlorophenoxy)propionic acid]", "CC50 at 24 h": "> 90"}, {"smiles": "C=CCOCC1CO1", "note": "(stereo not shown) [Allyl glycidyl ether]", "CC50 at 24 h": "> 90"}, {"smiles": "Cc1ccc(N(CCO)CCO)cc1", "note": "[2,2'-[(4-Methylphenyl)imino]diethanol]", "CC50 at 24 h": "> 90"}, {"smiles": "c1cc(CCCc2ccncc2)ccn1", "note": "[4,4'-Propane-1,3-diyldipyridine]", "CC50 at 24 h": "> 90"}, {"smiles": "CC(=O)OCCOC(C)=O", "note": "[1,2-Ethanediol diacetate]", "CC50 at 24 h": "> 90"}, {"smiles": "CO/C=C(/C(=O)OC)c1ccccc1COc1cccc(C(F)(F)F)n1", "note": "[Picoxystrobin]", "CC50 at 24 h": "> 90"}, {"smiles": "COc1ccc(N)c([N+](=O)[O-])c1", "note": "[4-Methoxy-2-nitroaniline]", "CC50 at 24 h": "> 90"}, {"smiles": "CS(=O)(=O)c1ccc(C(=O)C2C(=O)CCCC2=O)c([N+](=O)[O-])c1", "note": "[Mesotrione]", "CC50 at 24 h": "> 90"}, {"smiles": "CC(=O)OCc1ccccc1", "note": "[Benzyl acetate]", "CC50 at 24 h": "> 90"}, {"smiles": "CCCCCC[n+]1ccccc1", "note": "[1-Hexylpyridinium bromide]", "CC50 at 24 h": "> 90"}, {"smiles": "CC(CCc1ccc(O)cc1)NCC(O)c1ccc(O)cc1", "note": "(stereo not shown) [Ractopamine hydrochloride]", "CC50 at 24 h": "> 50"}, {"smiles": "COC(=O)C(C)N(C(=O)Cc1ccccc1)c1c(C)cccc1C", "note": "(stereo not shown) [Benalaxyl]", "CC50 at 24 h": "> 90"}, {"smiles": "CCOc1ccc(NS(=O)(=O)c2ccc(N)cc2)nn1", "note": "[Sulfaethoxypyridazine]", "CC50 at 24 h": "> 50"}]}, {"test": "in vitro", "details": "rat, gh3-tre-luc cells, AC50 (uM) modified / 1000, Tox21_110001=Tox21_111614; viability, 1 nM T3 present, 24 h", "units": {"CC50 at 24 h": "µM"}, "values": [{"smiles": "OC(O)C(Cl)(Cl)Cl", "note": "[Chloral hydrate]", "CC50 at 24 h": "> 50"}]}, {"test": "in vitro", "details": "rat, gh3-tre-luc cells, AC50 (uM) modified / 1000, Tox21_110001=Tox21_112426; viability, 1 nM T3 present, 24 h", "units": {"CC50 at 24 h": "µM"}, "values": [{"smiles": "FC(F)OC(F)(F)C(F)Cl", "note": "(stereo not shown) [Enflurane]", "CC50 at 24 h": "> 50"}]}, {"test": "in vitro", "details": "rat, gh3-tre-luc cells, AC50 (uM) modified / 1000, Tox21_110001=Tox21_113529; viability, 1 nM T3 present, 24 h", "units": {"CC50 at 24 h": "µM"}, "values": [{"smiles": "CC(N)Cc1ccc2c(c1)OCO2", "note": "(stereo not shown) [Tenamfetamine hydrochloride]", "CC50 at 24 h": "> 50"}]}, {"test": "in vitro", "details": "rat, gh3-tre-luc cells, AC50 (uM) modified / 1000, Tox21_110001=Tox21_200110; viability, 1 nM T3 present, 24 h", "units": {"CC50 at 24 h": "µM"}, "values": [{"smiles": "OC(O)C(Cl)(Cl)Cl", "note": "[Chloral hydrate]", "CC50 at 24 h": "> 90"}]}, {"test": "in vitro", "details": "rat, gh3-tre-luc cells, AC50 (uM) modified / 1000, Tox21_110001=Tox21_200166; viability, 1 nM T3 present, 24 h", "units": {"CC50 at 24 h": "µM"}, "values": [{"smiles": "FC(F)OC(F)(F)C(F)Cl", "note": "(stereo not shown) [Enflurane]", "CC50 at 24 h": "> 90"}]}, {"test": "in vitro", "details": "rat, gh3-tre-luc cells, AC50 (uM) modified / 1000, Tox21_110001=Tox21_200657; viability, 1 nM T3 present, 24 h", "units": {"CC50 at 24 h": "µM"}, "values": [{"smiles": "O=C(O)CBr", "note": "[Bromoacetic acid]", "CC50 at 24 h": "> 90"}]}, {"test": "in vitro", "details": "rat, gh3-tre-luc cells, AC50 (uM) modified / 1000, Tox21_110001=Tox21_200721; viability, 1 nM T3 present, 24 h", "units": {"CC50 at 24 h": "µM"}, "values": [{"smiles": "c1ccc2cc3c(cc2c1)-c1cccc2cccc-3c12", "note": "[Benzo(k)fluoranthene]", "CC50 at 24 h": "> 90"}]}, {"test": "in vitro", "details": "rat, gh3-tre-luc cells, AC50 (uM) modified / 1000, Tox21_110001=Tox21_202204; viability, 1 nM T3 present, 24 h", "units": {"CC50 at 24 h": "µM"}, "values": [{"smiles": "COP(=O)(NC(C)=O)SC", "note": "(stereo not shown) [Acephate]", "CC50 at 24 h": "> 90"}]}, {"test": "in vitro", "details": "rat, gh3-tre-luc cells, AC50 (uM) modified / 1000, Tox21_110001=Tox21_300778; viability, 1 nM T3 present, 24 h", "units": {"CC50 at 24 h": "µM"}, "values": [{"smiles": "CNC(=O)Oc1cccc(N=CN(C)C)c1", "note": "[Formetanate hydrochloride]", "CC50 at 24 h": "> 90"}]}, {"test": "in vitro", "details": "rat, gh3-tre-luc cells, AC50 (uM) modified / 1000, Tox21_110001=Tox21_301886; viability, 1 nM T3 present, 24 h", "units": {"CC50 at 24 h": "µM"}, "values": [{"smiles": "O=[N+]([O-])c1ccc(Nc2ccc(Nc3ccccc3)c(S(=O)(=O)O)c2)c([N+](=O)[O-])c1", "note": "[C.I. Acid Orange 3]", "CC50 at 24 h": 76.1}]}]}
